Like-named read-outs stand apart in the source and are kept apart here.
Columns and labels:
[1] = system: PD-1; experiment: PD-1, CD8 and CD25 expression on T cells by imaging flow cytometry; type: cell-based, human
Experimental: (§1) PBMCs were allowed to ‘recover’ in AIM-V medium (Thermo Fisher Scientific) at 37 °C, 5% CO2 in a humidified atmosphere overnight. 2 × 10^6 cells were treated with 0–10 µM sorafenib for the durations specified in the results section. If the experimental conditions required T cell stimulation, samples were co-treated (stimulated) with 1 µg/mL anti-CD3 and 1 µg/mL anti-CD28 for 2 h. Following treatment, PBMCs were placed on ice to stop drug action and immunophenotyped for CD4, CD8, CD25, and PD-1 (CD279). NFAT1 was detected by indirect labeling. Antibodies were diluted in permeabilization wash buffer (PWB) consisting of 0.1% Triton-X-100 in FCM Buffer (1× phosphate buffered saline (PBS) + 0.5%BSA). The primary Rabbit polyclonal NFAT1 antibody was diluted 1:50 in PWB. Following this, 1:200 dilution of secondary AF647 conjugated F(ab’)2 fragment donkey anti rabbit IgG antibody (Jackson ImmunoResearch Laboratories Inc., West Grove, PA, USA) was added. Just prior to data acquisition on the ImageStream, DAPI was added to all samples (0.5 µg/mL final concentration), to stain the nucleus.
(§2) Imaging flow cytometry acquisition, compensation, and analysis was performed on an imaging flow cytometer (ImagestreamX Mk-II; Amnis, part of MilliporeSigma, Seattle, WA, USA) as described previously. Following compensation for spectral overlap, image analysis was performed with IDEAS® software (Amnis, Seattle, WA, USA). To assess nuclear NFAT1 translocation, the corresponding nuclear image and NFAT1 image of each cell was compared and a Similarity Score (SS) was assigned for individual cells using published methods (Figure S3).

[2] = Plasma pharmacokinetics of oral sorafenib in woodchucks (LC-MS/MS, noncompartmental analysis); type: in vivo, woodchuck (Marmota monax); conditions: for AUC / Cmax / Tmax: plasma, po; for AUC / Cmax / Tmax / Cmax/D, Geo Mean (%CV): woodchuck plasma; for Cmax: read-out: Cmax, Geo Mean (%CV); for Tmax: read-out: Tmax, Geo Mean (%CV)
Experimental: Woodchuck plasma study samples were analyzed for sorafenib with an LC-MS/MS assay using authentic standards of sorafenib and the internal standard (IS), d3-sorafenib, both obtained from Toronto Research Chemicals (Toronto, ON, Canada). Study samples were quantitated using calibration and quality control (QC) samples prepared by spiking sorafenib into sodium heparinized human plasma (Bioreclamation, LLC, Westbury, NY, USA). The woodchuck plasma study samples were extracted using a Quadra 4 SPE Automated Liquid Handling System (Tomtec Inc., Hamden, CT, USA) by mixing a 50 µL aliquot of a calibrator, QC, plasma blank, or study sample with 500 µL of ice cold acetonitrile containing the IS for the LC-MS/MS. LC-MS/MS analysis was performed using a Finnigan Surveyor MS Pump Plus and Thermo Pal Autosampler System interfaced with a TSQ Quantum Ultra Mass Spectrometer, all obtained from Thermo Fisher Scientific (Waltham, MA, USA). A noncompartmental pharmacokinetic analysis (NCA) was performed on individual concentration-time data using a linear trapezoidal, linear/log interpolation calculation method with uniform weighting. The software program utilized for this analysis was Phoenix 64 WinNonlin Version 6.3 (Pharsight Corp., St. Louis, MO, USA). Study sample (n = 9) concentrations that were above the lower limit of quantitation (LLOQ) of the assay (62.5 ng/mL) following dose administration (Day 1: pre-dose and 1, 3, 5, 7 and 24 h; Day 19: pre-dose and 1, 3, 5, and 7 h) were used in the NCA.
All WHV carrier woodchucks were randomly divided into three groups such as placebo, low dose (2.5 mg/kg/day), and high dose (5.0 mg/kg/day) groups (n = 5 animals/group) in a long-term efficacy study based on clinical and preclinical studies. Also, a compartmental pharmacokinetic (PK) model was used to select the two lowest doses that can achieve exposure sufficient to inhibit pharmacodynamic targets. Experimental woodchucks were treated with placebo, 2.5 mg/kg, or 5.0 mg/kg sorafenib once daily with a 5 days on and 2 days off schedule. Animals were dosed orally until tumor development. Another experiment was performed with the low (2.5 mg/kg/day) and high (5.0 mg/kg/day) dose groups (n = 3 animals/group) to see the efficacy of short-term (90 days treatment) usage of sorafenib. The primary endpoint of the in vivo study was disease free survival (DFS), and DFS was measured from the date of randomization until the date of any liver tumor detection. The secondary endpoint was tumor size over 2 cm, which was measured from the date of first tumor detection. All experimental protocols were approved by IACUC.

[3] = system: woodchuck T cells; experiment: One-way mixed lymphocyte reaction (MLR), woodchuck T cells, CFSE; type: cell-based; conditions: woodchuck vs. human MLR, 0–10 µM, dose responsive, 96 h
Experimental: Flow cytometry acquisition and compensation was performed on a LSR Fortessa (BD Biosciences, San Jose, CA, USA). Analysis of listmode data was performed using Winlist 8.0 (Verity Software House, Inc., Topsham, ME, USA). Briefly, the viable responder lymphocytes were hierarchically gated for single, low side scatter, viable cells with absent CD45 labeling. The percentage of proliferating cells was determined based on CFSE dye dilution compared to the CFSE labeling intensity from the non-proliferating MLR negative control sample. The full list of antibodies and reagents used in assays is available in Table S1.
Mixed lymphocyte reactions were performed in human (human vs. human, Figure 1E) and woodchucks (woodchuck vs. human, Figure 1F). 10 mL peripheral blood from healthy donors and 3 mL woodchuck peripheral blood isolated. Stimulator cells (human cells for both assays) were irradiated at 40 Gy in a Mark I Cesium-137 irradiator for 20 min. Following irradiation, cells were stained for CD45-APC (BD Biosciences, San Jose, CA, USA). Responder cells (non-irradiated human or woodchuck cells) were labeled with CFSE (Thermo Fisher Scientific, Eugene, OR, USA). Target and responder cells were placed in a round bottom 96 well polypropylene plate at a 2:1 ratio in the presence of 0–10 µM sorafenib and incubated at 37 °C for 96 h. […]

[4] = system: NFAT1; experiment: NFAT1 nuclear translocation in T cells by imaging flow cytometry (similarity score); type: cell-based, human; conditions: for nuclear translocation of NFAT1: non-stimulated CD8+ T cells
Experimental: as §1, §2

[5] = high dose (10 µM), PD-1+ T cells
[6] = 2.5 mg/kg, oral 2.5 mg/kg, Day 1
[7] = 2.5 mg/kg, oral 2.5 mg/kg, Day 19
[8] = 5 mg/kg, oral 5.0 mg/kg, Day 19

## CNC(=O)c1cc(Oc2ccc(NC(=O)Nc3ccc(Cl)c(C(F)(F)F)c3)cc2)ccn1 [sorafenib, Sorafenib]
[1]; dose-dependent manner, % of total CD4+ cells
  proportion of CD4+CD25bright T cells: decrease
[1]; [5]
  CD8 expression in PD-1+ cells: decreased
[1]; high dose (10 µM), PD-1 negative T cells
  NFAT1 activation and decreased expression of CD8 in PD-1 negative T cells: not observed
[1]; high dose (10 µM), without exogenous stimulatory factors
  proportion of PD-1-expressing CD8+ and CD4+ T cells: increased
[2]; 5.0 vs 2.5 mg/kg, Day 1
  Cmax/D of high dose group relative to low dose group: ~ 8 times
[2]; 5.0 vs 2.5 mg/kg, Day 19
  Cmax/D of high dose group compared with low dose group: the same
[2]; 2.5 mg/kg, oral 2.5 mg/kg, Day 1, read-out: AUC1–7 h, Geo Mean (%CV)
  AUC: 588 ng·h/mL
[2]; 2.5 mg/kg, oral 2.5 mg/kg, Day 1, read-out: AUCAll, Geo Mean (%CV)
  AUC: 2600 ng·h/mL
[2]; [6]
  Cmax: 136 ng/mL
  Tmax: 5.92 h
[2]; 2.5 mg/kg, oral 2.5 mg/kg, Day 19, read-out: AUC1–7 h, Geo Mean (%CV)
  AUC: 26800 ng·h/mL
[2]; 2.5 mg/kg, oral 2.5 mg/kg, Day 19, read-out: AUCAll, Geo Mean (%CV)
  AUC: 30300 ng·h/mL
[2]; [7]
  Cmax: 4970 ng/mL
  Tmax: 4.22 h
[2]; 5 mg/kg, oral 5.0 mg/kg, Day 1, read-out: AUC1–7 h, Geo Mean (%CV)
  AUC: 5960 ng·h/mL
[2]; 5 mg/kg, oral 5.0 mg/kg, Day 1, read-out: AUCAll, Geo Mean (%CV)
  AUC: 21000 ng·h/mL
[2]; 5 mg/kg, oral 5.0 mg/kg, Day 1
  Cmax: 1170 ng/mL
  Tmax: 3.98 h
[2]; 5 mg/kg, oral 5.0 mg/kg, Day 19, read-out: AUC1–7 h, Geo Mean (%CV)
  AUC: 39100 ng·h/mL
[2]; [8]
  Cmax: 7380 ng/mL
  Tmax: 3.98 h
[2]; oral 2.5 mg/kg, Day 1
  Cmax/D, Geo Mean (%CV): 2, 54.4 (3.41) (ng/mL)/(mg/kg)
[2]; oral 2.5 mg/kg, Day 19
  Cmax/D, Geo Mean (%CV): 3, 1990 (19.8) (ng/mL)/(mg/kg)
[2]; oral 5.0 mg/kg, Day 1
  Cmax/D, Geo Mean (%CV): 3, 433 (75.8) (ng/mL)/(mg/kg)
[2]; oral 5.0 mg/kg, Day 19
  Cmax/D, Geo Mean (%CV): 3, 2000 (54.5) (ng/mL)/(mg/kg)
[3]
  MLR response (T cell proliferation): inhibition of the woodchuck MLR response
[4]; 10 µM, 1 h exposure
  nuclear translocation of NFAT1: no significant increase
[4]; 10 µM, 4 h exposure
  nuclear translocation of NFAT1: most significant increase
[4]; 10 µM, PMA/ionomycin stimulation, lesser extent than CD3/CD28
  effect on PMA/ionomycin-induced T cell stimulation (NFAT1): inhibitory effect
[4]; 10 µM, absence of CD3/CD28 stimulation
  baseline activity of NFAT1 in T cells: significantly increased
[4]; 10 µM, presence of CD3/CD28 stimulation
  anti-CD3/CD28-induced NFAT1 activity: significantly inhibited
[4]; [5]
  NFAT1 activation in PD-1+ cells: increased
[4]; lower doses of sorafenib, absence of exogenous stimulatory factors
  NFAT1 activation: not observed

Source: paper PMC6562672, “Dose-Dependent Sorafenib-Induced Immunosuppression Is Associated with Aberrant NFAT Activation and Expression of PD-1 in T Cells” (Cancers, 2019)
